pIC50: −log10 of the molar value.
Target: T1, GST-tagged ROR gamma ligand binding domain (LBD) (Homo sapiens, UniProt P51449)
T1 construct: purchased Invitrogen
T1 sequence (P51449 269-508 limits assumed): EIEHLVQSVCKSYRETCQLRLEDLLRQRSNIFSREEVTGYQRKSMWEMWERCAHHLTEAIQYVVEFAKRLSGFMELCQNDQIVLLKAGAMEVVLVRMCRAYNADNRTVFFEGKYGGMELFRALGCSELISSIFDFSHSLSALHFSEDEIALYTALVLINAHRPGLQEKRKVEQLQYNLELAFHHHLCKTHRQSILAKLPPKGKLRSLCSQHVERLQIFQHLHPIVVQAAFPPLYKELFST
Assay: TR-FRET assay for ROR gamma (LanthaScreen co-activator peptide recruitment)
Type: biochemical
Conditions: for inhibition at 1 µM: compound 1 μM; for inhibition at 1 µM / inhibition at 10 µM: TR-FRET ratio 520/495, percent of control; for inhibition at 10 µM: compound 10 μM; for pIC50: class symbols, from dose response curve
Source text: The compounds described herein were screened for ROR gamma modulator activity using the TR-FRET assay by Lantha Screen as described in JBC 2011, 286, 26: 22707-10; and Drug Metabolism and Disposition 2009, 37, 10: 2069-78.
The assay is based on the principle that binding of the agonist to the ROR gamma causes a conformational change around helix 12 in the ligand binding domain, resulting in higher affinity for the co-activator peptide. ROR gamma being constitutively active, the Fluorescein-D22 co-activator peptide used in the assay is recruited in the absence of a ligand. Binding of the co-activator peptide, causes an increase in the TR-FRET signal while binding of an antagonist decreases the recruitment of the co-activator peptide, causing a decrease in the TR-FRET signal compared to control with no compound. The assay was performed using a two-step procedure, pre-incubation step with the compound followed by the detection step on addition of the anti-GST tagged terbium (Tb) and fluorescein tagged fluorophores as the acceptor.
Test compounds or reference compounds such as T0901317 (Calbiochem) were dissolved in dimethylsulfoxide (DMSO) to prepare 10.0 mM stock solutions and diluted to the desired concentration. The final concentration of DMSO in the reaction was 4% (v/v). The assay mixture was prepared by mixing 10 nM of the GST-tagged ROR gamma ligand binding domain (LBD) in the assay buffer containing 25 mM HEPES (pH 7.4), 100 mM NaCl, 5 mM DTT and 0.01% BSA with or without the desired concentration of the compound. The reaction was incubated at 22° C. for 1 hour. The pre-incubation step was terminated by addition of the detection mixture containing 300 nM Fluorescein-D22 co-activator peptide and 10 nM lantha screen Tb-anti GST antibody into the reaction mixture. After shaking for 5 minutes the reaction was further incubated for 1 hour at room temperature and read at 4° C. on an Infinite F500 reader as per the kit instructions (Invitrogen). The inhibition of test compound was calculated based on the TR-FRET ratio of 520/495. The activity was calculated as a percent of control reaction. IC50 values were calculated from dose response curve by nonlinear regression analysis using GraphPad Prism software.
Percentage inhibition at concentrations of 1.0 μM and 10.0 μM are given in the table along with IC50 (nM) details for selected examples.

Compound | inhibition at 1 µM | inhibition at 10 µM | pIC50
CCS(=O)(=O)c1ccc(CC(=O)Nc2ccc(OC3(c4ccc(Cl)cc4F)CCOCC3)cc2)cc1 [Example 36, N-(4-{[4-(4-Chloro-2-fluorophenyl)tetrahydro-2H-pyran-4-yl]oxy}phenyl)-2-[4-(ethylsulfonyl)phenyl]acetamide] | 69.9% | 74.7% | 
CCS(=O)(=O)c1ccc(CC(=O)Nc2ccc(OC3(c4ccc(Cl)cc4)CCOCC3)cc2)cc1 [Example 37, N-{4-[4-(4-Chlorophenyl)-tetrahydro-pyran-4-yloxy]-phenyl}-2-(4-ethanesulfonyl-phenyl)-acetamide] | 80.8% | 83.2% | < 7.00
CCS(=O)(=O)c1ccc(CC(=O)Nc2ccc(OC3(c4ccc(Cl)c(F)c4)CCOCC3)cc2)cc1 [Example 38, N-{4-[4-(4-Chloro-3-fluoro-phenyl)-tetrahydro-pyran-4-yloxy]-phenyl}-2-(4-ethanesulfonyl-phenyl)-acetamide] | 85.8% | 87.8% | > 7.30
CCS(=O)(=O)c1ccc(CC(=O)Nc2ccc(OC3(c4ccc(Cl)c(Cl)c4)CCOCC3)cc2)cc1 [Example 39, N-{4-[4-(3,4-Dichloro-phenyl)-tetrahydro-pyran-4-yloxy]-phenyl}-2-(4-ethanesulfonyl-phenyl)-acetamide] | 87.7% | 94.8% | 7.00 to 7.30
CCS(=O)(=O)c1ccc(CC(=O)Nc2ccc(OC3(c4ccc(Cl)cc4Cl)CCOCC3)cc2)cc1 [Example 40, N-{4-[4-(2,4-Dichloro-phenyl)-tetrahydro-pyran-4-yloxy]-phenyl}-2-(4-ethanesulfonyl-phenyl)-acetamide] | 77.4% | 81.9% | > 7.30
CCS(=O)(=O)c1ccc(CC(=O)Nc2ccc(OC3(c4ccc(C(F)(F)F)c(F)c4)CCOCC3)cc2)cc1 [Example 41, 2-(4-Ethanesulfonyl-phenyl)-N-{4-[4-(3-fluoro-4-trifluoromethyl-phenyl)-tetrahydro-pyran-4-yloxy]-phenyl}-acetamide] | 78% | 87.2% | < 7.00
CCS(=O)(=O)c1ccc(CC(=O)Nc2ccc(OC3(c4ccc(F)c(C(F)(F)F)c4)CCOCC3)cc2)cc1 [Example 42, 2-(4-Ethanesulfonyl-phenyl)-N-{4-[4-(4-fluoro-3-trifluoromethyl-phenyl)-tetrahydro-pyran-4-yloxy]-phenyl}-acetamide] | 65.9% | 86% | 
CCS(=O)(=O)c1ccc(CC(=O)Nc2ccc(OC3(c4ccc(Cl)c(F)c4)CCNCC3)cc2)cc1 [Example 43, N-(4-{[4-(4-Chloro-3-fluorophenyl)piperidin-4-yl]oxy}phenyl)-2-[4-(ethylsulfonyl)phenyl]acetamide] | 27.3% | 55% | 
CCS(=O)(=O)c1ccc(CC(=O)Nc2ccc(OC3(c4ccc(Cl)c(F)c4)CCN(C)CC3)cc2)cc1 [Example 44, N-{4-[4-(4-Chloro-3-fluoro-phenyl)-1-methyl-piperidin-4-yloxy]-phenyl}-2-(4-ethanesulfonyl-phenyl)-acetamide] | 44.6% | 70% | 
CCS(=O)(=O)c1ccc(CC(=O)Nc2ccc(OC3(c4ccc(Cl)c(F)c4)COC3)cc2)cc1 [Example 45, N-{4-[3-(4-Chloro-3-fluoro-phenyl)-oxetan-3-yloxy]-phenyl}-2-(4-ethanesulfonyl-phenyl)-acetamide] | 76.8% | 85.7% | > 7.30
CCS(=O)(=O)c1ccc(CC(=O)Nc2ccc(OC3(c4ccc(Cl)c(Cl)c4)COC3)cc2)cc1 [Example 46, N-{4-[3-(3,4-Dichlorophenyl)-oxetan-3-yloxy]-phenyl}-2-(4-ethanesulfonyl-phenyl)-acetamide] | 68.1% | 86.3% | < 7.00
CCS(=O)(=O)c1ccc(CC(=O)Nc2ccc(OC3(c4ccc(Cl)cc4Cl)COC3)cc2)cc1 [Example 47, N-{4-[3-(2,4-Dichlorophenyl)-oxetan-3-yloxy]-phenyl}-2-(4-ethanesulfonyl-phenyl)-acetamide] | 90.3% | 93.2% | > 7.30
CCS(=O)(=O)c1ccc(CC(=O)Nc2ccc(OC3(c4ccc(C(F)(F)F)c(F)c4)COC3)cc2)cc1 [Example 48, (4-Ethanesulfonyl-phenyl)-N-{4-[3-(3-fluoro-4-trifluoromethyl-phenyl)-oxetan-3-yloxy]-phenyl}-acetamide] | 60.3% | 77.4% | 
CCS(=O)(=O)c1ccc(CC(=O)Nc2ccc(OC3(c4ccc(Cl)c(Cl)c4)CC3)cc2)cc1 [Example 49, N-{4-[1-(3,4-Dichloro-phenyl)-cyclopropoxy]-phenyl}-2-(4-ethanesulfonyl-phenyl)-acetamide] | 69.1% | 80% | 7.00 to 7.30
CCS(=O)(=O)c1ccc(CC(=O)Nc2ccc(OC3(c4ccc(Cl)c(F)c4)CC3)cc2)cc1 [Example 50, N-{4-[1-(4-Chloro-3-fluoro-phenyl)-cyclopropoxy]-phenyl}-2-(4-ethanesulfonyl-phenyl)-acetamide] | 81.3% | 87.9% | > 7.30
CCS(=O)(=O)c1ccc(CC(=O)Nc2ccc(OC3(c4ccc(Cl)cc4F)CC3)cc2)cc1 [Example 51, N-{4-[1-(4-Chloro-2-fluoro-phenyl)-cyclopropoxy]-phenyl}-2-(4-ethanesulfonyl-phenyl)-acetamide] | 85.9% | 87.7% | > 7.30
CCS(=O)(=O)c1ccc(CC(=O)Nc2ccc(OC3(c4ccc(Cl)c(F)c4)CC3)nc2)cc1 [Example 52, N-{6-[1-(4-Chloro-3-fluoro-phenyl)-cyclopropoxy]-pyridin-3-yl}-2-(4-ethanesulfonyl-phenyl)-acetamide] | 63.7% | 83.8% | 
CCS(=O)(=O)c1ccc(CC(=O)Nc2ccc(OC3(c4ccc(Cl)c(Cl)c4)CC3)nc2)cc1 [Example 53, N-{6-[1-(3,4-Dichloro-phenyl)-cyclopropoxy]-pyridin-3-yl}-2-(4-ethanesulfonyl-phenyl)-acetamide] | 52.6% | 76.5% | 
CCS(=O)(=O)c1ccc(CC(=O)Nc2ccc(OC3(c4ccc(Cl)c(F)c4)CCC3)nc2)cc1 [Example 54, N-{6-[1-(4-Chloro-3-fluoro-phenyl)-cyclobutoxy]-pyridin-3-yl}-2-(4-ethanesulfonyl-phenyl)-acetamide] | 92% | 93.7% | > 7.30
CCS(=O)(=O)c1ccc(CC(=O)Nc2ccc(OC3(c4ccc(Cl)c(F)c4)CCOCC3)nc2)cc1 [Example 55, N-{6-[4-(4-Chloro-3-fluoro-phenyl)-tetrahydro-pyran-4-yloxy]-pyridin-3-yl}-2-(4-ethanesulfonyl-phenyl)-acetamide] | 75.5% | 80.3% | 
CCS(=O)(=O)c1ccc(CC(=O)Nc2ccc(OC(C)(C)c3ccc(Cl)cc3F)nc2)cc1 [Example 56, N-{6-[1-(4-Chloro-2-fluoro-phenyl)-1-methyl-ethoxy]-pyridin-3-yl}-2-(4-ethanesulfonyl-phenyl)-acetamide] | 83.1% | 91.3% | > 7.30
CCS(=O)(=O)c1ccc(CC(=O)Nc2ccc(OC(C)(C)c3ccc(F)cc3Cl)nc2)cc1 [Example 57, N-{6-[1-(2-Chloro-4-fluoro-phenyl)-1-methyl-ethoxy]-pyridin-3-yl}-2-(4-ethanesulfonyl-phenyl)-acetamide] | 78% | 91.3% | 7.00 to 7.30
CCS(=O)(=O)c1ccc(CC(=O)Nc2ccc(OC(C)(C)c3ccc(Cl)cc3Cl)nc2)cc1 [Example 58, N-(6-{[2-(2,4-Dichlorophenyl)propan-2-yl]oxy}pyridin-3-yl)-2-[4-(ethylsulfonyl)phenyl]acetamide] | 83.7% | 86.7% | > 7.30

Source: patent US9718817B2, “Aryl and heteroaryl ether compounds as ROR gamma modulators” (Glenmark Pharmaceuticals S.A., priority 2014, dated 2017)
